From ChEMBL document CHEMBL1201862, “PubChem BioAssay data set” (2004)
Activity calls are given as the source filed them.

Key:
Ephrin type-A receptor 4 = Ephrin type-A receptor 4 (Mus musculus, UniProt Q03137); assay: EphA4 ligand-binding antagonists – biochemical, colorimetric, mouse EphA4, primary screen (AID 689); type: functional
[1] = SNU-C1 cell viability reduction, dose response, CellTiter-Glo luminescence (AID 1117323); type: functional, cell-based
[2] = cytotoxicity toward HCT116 cells – cell-based, CellTiter-Glo luminescence, IC50, dose response (AID 1117332); type: functional; settings: HCT-116
[3] = RKO cell viability reduction, dose response, CellTiter-Glo luminescence (AID 1117322); type: functional
[4] = Reduced DLD-1 viability, concentration-response, CellTiter-Glo luminescence (AID 1117352); type: functional
[5] = cytotoxicity toward Colo320 cells – cell-based, CellTiter-Glo luminescence, IC50, dose response (AID 1117334); type: functional; settings: COLO 320
[6] = CellTiter-Glo luminescence survival assay, SW480 colon tumor line, concentration-response curve, half-maximal inhibitory concentration (AID 1117338); type: functional
[7] = cytotoxicity toward HT-29 cells – cell-based, CellTiter-Glo luminescence, IC50, dose response (AID 1117330); type: functional
[8] = HCT116 cell viability decrease, GSK3B pretreatment – CellTiter-Glo, IC50, dose response (AID 1117339); type: functional; settings: HCT-116
[9] = M. tuberculosis growth inhibition, HTS (AID 449762); type: functional
[10] = rise of 2N DNA cells, HeLa – IC50, dose response (AID 1117349); type: functional, cell-based
[11] = biological target: T1, Oxysterols receptor LXR-beta (Homo sapiens, UniProt P55055); type: functional, cell-based
T1 sequence (P55055 whole entry): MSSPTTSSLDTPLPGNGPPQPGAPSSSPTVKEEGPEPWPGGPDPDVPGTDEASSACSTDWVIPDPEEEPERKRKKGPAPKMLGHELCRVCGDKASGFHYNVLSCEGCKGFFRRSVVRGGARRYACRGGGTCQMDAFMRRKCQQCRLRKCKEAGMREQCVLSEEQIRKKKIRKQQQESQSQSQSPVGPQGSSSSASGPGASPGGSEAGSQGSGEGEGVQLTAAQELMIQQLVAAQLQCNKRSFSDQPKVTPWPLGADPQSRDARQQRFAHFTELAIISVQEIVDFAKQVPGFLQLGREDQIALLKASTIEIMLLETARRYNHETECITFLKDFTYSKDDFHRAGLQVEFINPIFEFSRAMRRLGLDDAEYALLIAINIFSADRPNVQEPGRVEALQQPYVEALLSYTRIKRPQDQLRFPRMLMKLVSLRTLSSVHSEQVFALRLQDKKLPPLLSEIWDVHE

[12] = rise of 4N DNA cells, HeLa – IC50, dose response (AID 1117351); type: functional, cell-based
[13] = biological target: T1, Oxysterols receptor LXR-beta; type: functional, cell-based; remark: listed apart in the source
[14] = biological target: Ubiquitin carboxyl-terminal hydrolase BAP1 (Homo sapiens, UniProt Q92560); assay: inhibition of BAP1 ubiquitin hydrolase activity – biochemical, dose response (AID 714); type: functional
[15] = biological target: G-protein coupled receptor 183 (Homo sapiens, UniProt P32249); assay: SAR confirmation of small molecule antagonists of the EBI2 receptor via a luminescent beta-arrestin assa.; type: functional
[16] = biological target: T2, Mannose-6-phosphate isomerase (Homo sapiens, UniProt P34949); assay: MPI inhibition at elevated mannose 6-phosphate – biochemical, fluorescence intensity, high mannose 6-phosphate, primary screen (AID 1220)
T2 sequence (P34949 whole entry): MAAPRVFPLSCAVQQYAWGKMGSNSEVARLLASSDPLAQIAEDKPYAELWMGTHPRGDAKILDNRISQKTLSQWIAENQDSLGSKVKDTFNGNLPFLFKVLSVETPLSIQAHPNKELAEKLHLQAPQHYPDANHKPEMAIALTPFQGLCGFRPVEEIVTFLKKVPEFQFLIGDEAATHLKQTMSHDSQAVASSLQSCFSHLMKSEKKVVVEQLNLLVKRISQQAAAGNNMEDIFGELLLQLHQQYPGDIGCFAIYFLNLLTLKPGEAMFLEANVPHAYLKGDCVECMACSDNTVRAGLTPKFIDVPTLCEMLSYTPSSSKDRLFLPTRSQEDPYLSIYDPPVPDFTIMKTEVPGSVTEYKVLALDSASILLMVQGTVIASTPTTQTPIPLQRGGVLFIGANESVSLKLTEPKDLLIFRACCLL

[17] = biological target: FAD-linked sulfhydryl oxidase ALR (Homo sapiens, UniProt P55789); assay: ALR-catalysed DTT oxidation blockers – biochemical, H2O2 detection, luminescence, cherry-pick, dose response (AID 493248)
[18] = biological target: T2, Mannose-6-phosphate isomerase; assay: MPI enzyme activity inhibition – biochemical, fluorescence intensity, coupled assay, primary screen (AID 1209)
Large T antigen = Large T antigen (Simian virus 40, UniProt P03070); type: functional, Betapolyomavirus macacae;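 also: Confirmatory-stage PubChem screen for compounds that inhibit SV40 T antigen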
Streptococcus [19] = assay: GAS bacterial viability reduction – luminescence, BacTiter-Glo, strain UMAA2166, counter-screen for streptokinase expression inhibitor project, dose response (AID 2477); type: functional, organism-based
Streptokinase A = biological target: T3, Streptokinase A (Streptococcus pyogenes serotype M1, UniProt P10520); assay: Absorbance Microorganism-Based Dose Response Follow up to Identify Inhibitors of Streptokinase Expression. [Related pubchem assays: 1677 (Project Summary), 1915, 1914, 1902 (Retest at Dose), 1900 (Counter Screen), 1662 (Primary HTS)]; type: functional, Streptococcus pyogenes M1 GAS
T3 sequence (P10520 whole entry): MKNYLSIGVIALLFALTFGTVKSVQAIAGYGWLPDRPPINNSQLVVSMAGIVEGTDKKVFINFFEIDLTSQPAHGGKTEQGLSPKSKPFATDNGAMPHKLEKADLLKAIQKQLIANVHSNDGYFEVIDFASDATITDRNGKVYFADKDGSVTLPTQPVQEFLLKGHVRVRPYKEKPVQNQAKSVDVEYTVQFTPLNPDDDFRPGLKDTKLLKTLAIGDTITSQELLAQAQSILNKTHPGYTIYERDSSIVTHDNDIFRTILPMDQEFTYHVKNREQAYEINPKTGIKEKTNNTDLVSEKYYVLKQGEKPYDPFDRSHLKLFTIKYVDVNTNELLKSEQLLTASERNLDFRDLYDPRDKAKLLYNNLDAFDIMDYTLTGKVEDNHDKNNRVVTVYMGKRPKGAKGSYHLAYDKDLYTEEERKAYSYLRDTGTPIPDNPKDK

Galanin receptor type 2 = biological target: T4, Galanin receptor type 2 (Homo sapiens, UniProt O43603); assay: Dose Response cell-based high-throughput screening assay to identify agonists of galanin receptor 2 (GALR2). [Related pubchem assays: 864 ]; type: functional
T4 sequence (O43603 whole entry): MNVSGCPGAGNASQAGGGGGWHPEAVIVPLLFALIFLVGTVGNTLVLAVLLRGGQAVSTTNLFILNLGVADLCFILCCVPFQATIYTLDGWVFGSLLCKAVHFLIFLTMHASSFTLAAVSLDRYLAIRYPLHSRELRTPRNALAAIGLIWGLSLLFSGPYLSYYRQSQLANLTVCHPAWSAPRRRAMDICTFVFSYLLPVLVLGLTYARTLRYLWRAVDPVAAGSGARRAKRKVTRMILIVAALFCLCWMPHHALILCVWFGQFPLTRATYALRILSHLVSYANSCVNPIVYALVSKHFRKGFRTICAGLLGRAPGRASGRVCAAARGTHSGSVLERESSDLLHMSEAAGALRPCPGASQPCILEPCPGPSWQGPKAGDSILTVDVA

[20] = non-specific 3'UTR reporter inhibition in Clone20-Shn3RL – cell-based, Renilla luciferase, cherry-picked, counter-screen for Shn3 inhibitor project, dose response (AID 624133); type: functional
INS1 = assay: INS-1E survival protection against cytokine death – cell-based, luminescence, retest, dose response (AID 449756); type: functional; settings: Rattus norvegicus;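 also: cell death triggered by IL-1 beta plus TNF-alpha plus IFN-gamma mixture; protective hits raise ATP signal compared with cytokine alone wells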
[21] = reduction of Shn3 3'UTR-driven luciferase in osteoblasts – cell-based, Clone20 osteoblasts, firefly luciferase, cherry-picked, dose response (AID 624132); type: functional;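 also: firefly luciferase luminescence from reporter carrying the Shn3 3'UTR in osteoblasts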
[22] = MIN6 cell viability loss – mouse insulinoma, cytotoxicity control, dose response (AID 2122); type: functional;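 also: confirmatory high-throughput counterscreen run to flag cytotoxic compounds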
[23] = decrease of insulin promoter-GFP reporter – imaging, high-content screening, mouse beta cells (AID 1628); type: functional; settings: MIN6
[24] = system: Streptococcus sp. 'group A'; assay: Streptococcus pyogenes SK(-)GAS viability under kanamycin – luminescence, BacTiterGlo, confirmation, counter-screen for streptokinase expression inhibitor project, dose response (AID 1900); type: functional, organism-based
[25] = NIH3T3 cell viability loss – ATP luminescence, mouse fibroblasts, counter-screen, dose response (AID 2010); type: functional, cell-based;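 also: cells exposed to compound for about 90 hours before reading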
[26] = Trypanosoma cruzi growth suppression in host cells – NIH3T3 host cells, beta-gal luminescence, confirmation (AID 2044); type: functional, cell-based;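 also: intracellular parasites grown in NIH/3T3 mouse fibroblasts as host cells; luminescent beta-galactosidase reporter signal from transgenic T. cruzi replicating inside host cells; inhibitors lower the luminescence signal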
Streptococcus [27] = assay: GAS UMAA2166 growth inhibition – luminescence, BacTiterGlo, counter-screen for streptokinase expression inhibitor project, dose response (AID 1915); type: functional, organism-based;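 also: potency for reduction of bacterial viability or growth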
[28] = loss of viability in HepG2 cells – cell-based, CellTiter-Glo, cherry-picked, cytotoxicity control for Shn3 inhibitor project, dose response (AID 624134); type: functional
[29] = biological target: Muscarinic acetylcholine receptor M1 (Rattus norvegicus, UniProt P08482); assay: concentration-dependent potentiation of ACh at M1 – cell-based, calcium mobilization, CHO-K1, ACh EC20, dose response (AID 2425); type: functional
[30] = Dd2 parasite growth inhibition in erythrocytes – SYBR Green, dry powder samples, set 4, dose response (AID 1159572); type: functional, cell-based
Albumin = Albumin (Bos taurus, UniProt P02769); assay: Counterscreen for inhibitors of T-cell receptor (TCR)-CD3 interaction: Fluorescence-based biochemical high throughput dose response assay to identify inhibitors of T-cell receptor (TCR)-CD3 interaction using a TAMRA-labeled BSA probe.; type: functional
[31] = biological target: T5, Endoribonuclease toxin MazF (Escherichia coli K-12, UniProt P0AE70); assay: substrate-only fluorescence increase artefacts – biochemical, single-stranded RNase substrate, counter-screen for MazEF activator project, dose response (AID 588502); type: functional
T5 sequence (P0AE70 whole entry): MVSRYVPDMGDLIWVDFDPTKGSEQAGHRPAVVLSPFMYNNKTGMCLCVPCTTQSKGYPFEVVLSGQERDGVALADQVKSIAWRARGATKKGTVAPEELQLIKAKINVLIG

Bcl-2-like protein 1 = Bcl-2-like protein 1 (Homo sapiens, UniProt Q07817); assay: blockers of BCLXL peptide binding – biochemical, fluorescence polarization, 1536-well, selectivity assay for MCL1 inhibitor project, dose response (AID 2218)
[32] = biological target: Induced myeloid leukemia cell differentiation protein Mcl-1 (Homo sapiens, UniProt Q07820); assay: blockers of MCL1 binding to BIM peptide – biochemical, fluorescence polarization, BIM-BH3 peptide, 1536-well, dose response (AID 2217)
[33] = biological target: T5, Endoribonuclease toxin MazF; assay: activation of MazEF endoribonuclease cleavage – biochemical, fluorescence, single-stranded RNA substrate, uHTS hits, dose response (AID 588481); type: functional
[34] = biological target: Sphingosine 1-phosphate receptor 2 (Homo sapiens, UniProt O95136); assay: Dose Response Cell Based Assay for Agonists of the S1P2 Receptor of Purchased Analogues. [Related pubchem assays: 729, 843, 854, 736 ]; type: functional
[35] = Orthopox viral replication plaque formation Measured in Cell-Based and Microorganism Combination System Using Imaging - 2142-05_Inhibitor_Dose_DryPowder_Activity.; type: functional

Albumin, sequence (P02769 whole entry): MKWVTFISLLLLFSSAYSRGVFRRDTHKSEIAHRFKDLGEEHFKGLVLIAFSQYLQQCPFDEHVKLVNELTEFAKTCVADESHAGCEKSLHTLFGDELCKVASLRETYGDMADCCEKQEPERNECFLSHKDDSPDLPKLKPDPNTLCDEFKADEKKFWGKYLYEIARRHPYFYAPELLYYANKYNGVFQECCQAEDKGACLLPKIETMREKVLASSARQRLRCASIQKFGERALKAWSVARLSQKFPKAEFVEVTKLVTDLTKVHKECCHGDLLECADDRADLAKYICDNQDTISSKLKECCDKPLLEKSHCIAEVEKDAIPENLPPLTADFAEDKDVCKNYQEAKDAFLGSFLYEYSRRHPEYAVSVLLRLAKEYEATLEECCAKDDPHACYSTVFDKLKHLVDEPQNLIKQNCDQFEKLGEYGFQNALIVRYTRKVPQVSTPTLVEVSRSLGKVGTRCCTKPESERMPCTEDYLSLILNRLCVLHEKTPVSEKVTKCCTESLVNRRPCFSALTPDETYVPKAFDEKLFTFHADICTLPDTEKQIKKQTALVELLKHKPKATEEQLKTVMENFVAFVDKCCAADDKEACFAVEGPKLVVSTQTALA
Sphingosine 1-phosphate receptor 2, sequence (O95136 whole entry): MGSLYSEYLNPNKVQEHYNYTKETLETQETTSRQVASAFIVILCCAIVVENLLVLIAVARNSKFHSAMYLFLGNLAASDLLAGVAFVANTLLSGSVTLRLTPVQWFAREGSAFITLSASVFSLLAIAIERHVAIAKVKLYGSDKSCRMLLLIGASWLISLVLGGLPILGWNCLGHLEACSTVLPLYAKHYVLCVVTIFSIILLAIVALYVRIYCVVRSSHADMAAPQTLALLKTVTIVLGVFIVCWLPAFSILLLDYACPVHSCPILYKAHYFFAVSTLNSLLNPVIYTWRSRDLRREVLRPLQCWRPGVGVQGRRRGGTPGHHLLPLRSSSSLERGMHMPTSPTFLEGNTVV
Ephrin type-A receptor 4, sequence (Q03137 whole entry): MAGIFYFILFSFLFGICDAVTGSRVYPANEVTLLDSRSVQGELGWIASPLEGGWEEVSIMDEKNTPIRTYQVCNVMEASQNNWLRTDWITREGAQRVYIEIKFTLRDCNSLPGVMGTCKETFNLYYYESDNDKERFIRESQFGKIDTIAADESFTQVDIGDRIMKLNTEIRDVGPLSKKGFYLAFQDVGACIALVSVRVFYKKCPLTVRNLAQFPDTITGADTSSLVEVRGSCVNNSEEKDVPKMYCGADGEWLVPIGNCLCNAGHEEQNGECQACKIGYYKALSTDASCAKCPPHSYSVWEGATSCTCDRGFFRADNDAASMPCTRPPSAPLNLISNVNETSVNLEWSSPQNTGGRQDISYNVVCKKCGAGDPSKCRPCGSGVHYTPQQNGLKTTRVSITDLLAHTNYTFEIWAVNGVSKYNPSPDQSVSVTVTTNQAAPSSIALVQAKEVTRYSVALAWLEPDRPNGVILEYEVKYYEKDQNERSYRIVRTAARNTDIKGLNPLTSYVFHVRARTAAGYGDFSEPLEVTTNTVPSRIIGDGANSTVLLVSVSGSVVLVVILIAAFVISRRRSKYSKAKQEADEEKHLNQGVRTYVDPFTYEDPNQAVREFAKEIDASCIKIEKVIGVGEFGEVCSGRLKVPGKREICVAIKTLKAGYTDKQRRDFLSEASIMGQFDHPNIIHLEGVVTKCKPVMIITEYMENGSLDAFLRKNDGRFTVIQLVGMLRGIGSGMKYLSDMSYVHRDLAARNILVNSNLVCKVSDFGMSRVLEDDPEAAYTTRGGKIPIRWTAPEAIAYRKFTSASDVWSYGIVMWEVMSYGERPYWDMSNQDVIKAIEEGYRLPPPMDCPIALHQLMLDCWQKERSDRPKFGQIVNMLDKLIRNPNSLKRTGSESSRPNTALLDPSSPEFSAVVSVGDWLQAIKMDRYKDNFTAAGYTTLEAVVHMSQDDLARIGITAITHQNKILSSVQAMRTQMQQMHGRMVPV
G-protein coupled receptor 183, sequence (P32249 whole entry): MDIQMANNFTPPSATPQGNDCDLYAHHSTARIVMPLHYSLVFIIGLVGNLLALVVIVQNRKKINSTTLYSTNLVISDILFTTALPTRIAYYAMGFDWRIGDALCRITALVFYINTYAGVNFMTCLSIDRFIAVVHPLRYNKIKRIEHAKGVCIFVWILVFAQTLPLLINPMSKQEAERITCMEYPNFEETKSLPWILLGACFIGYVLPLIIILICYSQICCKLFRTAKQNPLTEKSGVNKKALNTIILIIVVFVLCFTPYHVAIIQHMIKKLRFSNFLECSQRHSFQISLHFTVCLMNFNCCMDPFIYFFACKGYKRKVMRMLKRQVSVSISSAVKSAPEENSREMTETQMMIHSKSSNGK
FAD-linked sulfhydryl oxidase ALR, sequence (P55789 whole entry): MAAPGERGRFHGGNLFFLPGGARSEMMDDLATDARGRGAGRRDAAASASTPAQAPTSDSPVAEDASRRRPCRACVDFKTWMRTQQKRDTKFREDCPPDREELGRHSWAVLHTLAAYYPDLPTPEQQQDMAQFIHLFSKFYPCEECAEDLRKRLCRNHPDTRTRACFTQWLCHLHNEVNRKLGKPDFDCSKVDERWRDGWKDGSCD
Bcl-2-like protein 1, sequence (Q07817 whole entry): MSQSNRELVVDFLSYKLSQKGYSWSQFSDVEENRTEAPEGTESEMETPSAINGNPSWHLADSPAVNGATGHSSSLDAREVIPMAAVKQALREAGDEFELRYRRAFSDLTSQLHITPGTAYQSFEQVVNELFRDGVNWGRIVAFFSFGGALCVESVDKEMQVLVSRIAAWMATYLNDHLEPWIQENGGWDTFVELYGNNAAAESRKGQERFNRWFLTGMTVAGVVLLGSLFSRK
Ubiquitin carboxyl-terminal hydrolase BAP1, sequence (Q92560 whole entry): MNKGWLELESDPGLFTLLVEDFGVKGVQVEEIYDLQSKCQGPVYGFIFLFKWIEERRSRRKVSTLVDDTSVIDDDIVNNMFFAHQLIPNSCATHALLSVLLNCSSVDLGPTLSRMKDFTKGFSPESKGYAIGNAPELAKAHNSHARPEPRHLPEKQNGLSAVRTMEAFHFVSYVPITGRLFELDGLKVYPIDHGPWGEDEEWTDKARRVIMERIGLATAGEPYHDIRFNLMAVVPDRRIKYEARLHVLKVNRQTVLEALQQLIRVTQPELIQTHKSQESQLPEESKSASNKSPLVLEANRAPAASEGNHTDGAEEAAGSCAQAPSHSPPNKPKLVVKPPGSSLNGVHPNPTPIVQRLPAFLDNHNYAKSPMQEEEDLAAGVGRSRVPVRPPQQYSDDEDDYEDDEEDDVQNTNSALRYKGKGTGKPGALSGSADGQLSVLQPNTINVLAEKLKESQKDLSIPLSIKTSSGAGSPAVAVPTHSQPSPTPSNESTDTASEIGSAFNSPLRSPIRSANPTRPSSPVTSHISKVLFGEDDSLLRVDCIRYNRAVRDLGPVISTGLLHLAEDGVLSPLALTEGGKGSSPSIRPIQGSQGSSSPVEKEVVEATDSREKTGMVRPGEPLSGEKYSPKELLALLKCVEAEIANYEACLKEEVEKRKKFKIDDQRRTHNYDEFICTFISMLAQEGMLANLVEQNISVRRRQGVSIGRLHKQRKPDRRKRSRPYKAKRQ
Large T antigen, sequence (P03070 whole entry): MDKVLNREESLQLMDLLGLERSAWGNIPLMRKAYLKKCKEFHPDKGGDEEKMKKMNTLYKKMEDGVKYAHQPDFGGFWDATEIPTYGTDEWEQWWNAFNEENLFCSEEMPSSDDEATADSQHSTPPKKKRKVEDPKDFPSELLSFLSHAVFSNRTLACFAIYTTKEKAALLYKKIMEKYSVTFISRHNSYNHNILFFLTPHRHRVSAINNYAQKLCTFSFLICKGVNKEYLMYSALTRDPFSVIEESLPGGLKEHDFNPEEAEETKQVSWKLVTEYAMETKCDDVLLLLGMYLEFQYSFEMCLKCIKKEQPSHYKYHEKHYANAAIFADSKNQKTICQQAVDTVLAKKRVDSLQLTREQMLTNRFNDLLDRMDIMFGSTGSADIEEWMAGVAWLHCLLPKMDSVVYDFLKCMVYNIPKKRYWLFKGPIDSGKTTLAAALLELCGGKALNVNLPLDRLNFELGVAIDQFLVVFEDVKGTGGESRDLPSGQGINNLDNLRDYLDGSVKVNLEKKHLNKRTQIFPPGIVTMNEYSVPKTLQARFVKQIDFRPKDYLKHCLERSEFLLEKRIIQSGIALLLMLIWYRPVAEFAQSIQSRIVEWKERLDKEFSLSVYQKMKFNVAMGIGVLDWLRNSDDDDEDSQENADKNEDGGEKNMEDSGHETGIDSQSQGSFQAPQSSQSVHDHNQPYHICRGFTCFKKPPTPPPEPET
Muscarinic acetylcholine receptor M1, sequence (P08482 whole entry): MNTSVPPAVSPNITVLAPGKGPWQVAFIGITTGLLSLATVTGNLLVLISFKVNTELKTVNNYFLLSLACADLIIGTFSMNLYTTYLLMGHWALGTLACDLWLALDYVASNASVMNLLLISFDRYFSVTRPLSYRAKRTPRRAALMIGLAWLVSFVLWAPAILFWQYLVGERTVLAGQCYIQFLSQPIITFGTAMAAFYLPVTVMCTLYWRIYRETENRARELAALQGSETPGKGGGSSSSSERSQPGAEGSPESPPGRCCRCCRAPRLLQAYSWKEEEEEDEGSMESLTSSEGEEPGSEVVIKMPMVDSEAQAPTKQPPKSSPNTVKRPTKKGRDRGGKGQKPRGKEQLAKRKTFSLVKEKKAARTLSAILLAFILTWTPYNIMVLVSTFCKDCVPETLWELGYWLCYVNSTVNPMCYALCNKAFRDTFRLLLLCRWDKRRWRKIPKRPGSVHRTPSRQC
Induced myeloid leukemia cell differentiation protein Mcl-1, sequence (Q07820 whole entry): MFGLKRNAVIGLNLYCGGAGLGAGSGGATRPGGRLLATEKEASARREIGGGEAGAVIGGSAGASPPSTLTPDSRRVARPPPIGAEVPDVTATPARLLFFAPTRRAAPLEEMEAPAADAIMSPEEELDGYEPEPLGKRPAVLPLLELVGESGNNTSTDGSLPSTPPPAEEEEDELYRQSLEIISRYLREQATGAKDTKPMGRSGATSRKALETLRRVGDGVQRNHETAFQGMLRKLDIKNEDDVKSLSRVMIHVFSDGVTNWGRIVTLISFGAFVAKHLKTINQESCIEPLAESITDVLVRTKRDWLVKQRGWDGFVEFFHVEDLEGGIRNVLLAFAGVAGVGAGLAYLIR

CCCCN(CCCC)c1nc2ccccc2nc1/C(C#N)=C(/O)OCC
IC50 (Ephrin type-A receptor 4): 5.65 µM (active)

CCCCCCCC[N+](C)(C)CCCCCCCC
IC50 [1]: 1.44 µM (active)
IC50 [2]: 6.24 µM (inactive)
IC50 [3]: 2.18 µM (active)
IC50 [4]: 3.22 µM (active)
IC50 [5]: 4.66 µM (active)
IC50 [6]: 3.46 µM (active)
IC50 [7]: 4 µM (active)
IC50 [8]: 3.69 µM (active)

CCCNC(=O)NC(=O)COc1ccc2oc3ccccc3c2c1
IC50 [9]: > 100 µM (active)

O=c1[nH]c(=O)n([C@H]2C[C@H](O)[C@@H](CO)O2)cc1Br [BROXURIDINE]
IC50 [10]: > 10 µM (inactive)
EC50 [11]: > 67.5 µM (inactive)
IC50 [12]: > 10 µM (inactive)
EC50 (cells): > 67.5 µM (inactive)
EC50 [13]: > 67.6 µM (inactive)

O=C(CSc1nc2c(c(=O)n1-c1ccc(Cl)cc1)SCC2)Nc1ccc2c(c1)OCCO2
IC50 [14]: 38.6 µM (not active)

Cc1ccccc1/C=C/C(=O)N1CCN(S(=O)(=O)c2ccc(Br)cc2)CC1
IC50 [15]: 0.187 µM (active)

CCn1c(=O)n(CC)c2cc(N)ccc21
IC50 [16]: > 50 µM (not active)
AC50 [17]: 0.754 µM (active)
IC50 [18]: > 50 µM (not active)
IC50 (Large T antigen): 14 µM (active)

COc1ccc(-c2nc(OC)c3ccccc3n2)cc1
EC50 (Streptococcus [19]): > 500 µM (not active)
EC50 (Streptokinase A): 63.2 µM (active)

Cc1cc(C)c2nc(NNC(=O)c3ccc(S(=O)(=O)N4CC(C)CC(C)C4)cc3)sc2c1 (stereo not drawn)
EC50 (Galanin receptor type 2): > 55.7 µM (not active)
AC50 [20]: 2.1 µM (active)
AC50 (INS1): 1.96 µM (active)
AC50 [21]: 2.28 µM (active)
IC50 [22]: 3.68 µM (active)
IC50 [23]: 4.16 µM (active)
EC50 [24]: 0.697 µM (active)
EC50 [25]: 3.39 µM (active)
EC50 [26]: 1.35 µM (active)
EC50 (Streptococcus [27]): 2.55 µM (active)
AC50 [28]: 7.56 µM (active)

Cc1cc(NC(=O)CS(=O)(=O)c2cn(Cc3cc(Br)ccc3F)c3ccccc23)no1
EC50 [29]: 1.42 µM (active)

COc1ccc2c3c([nH]c2c1)[C@H](CO)N(C(C)=O)CC31CCN(C(=O)c2cccc(F)c2)CC1
AC50 [30]: 14.1 µM (active)

O=c1cc(-c2ccc(O)c(O)c2)oc2c1ccc1ccccc12
IC50 (Albumin): > 94.1 µM (inactive)
EC50 [31]: > 99 µM (inactive)
IC50 (Bcl-2-like protein 1): > 109 µM (not active)
IC50 [32]: 23.8 µM (not active)
EC50 [33]: > 99 µM (inactive)

Cc1cc(C(=O)CN(C)CC(=O)NC(C)(C)C)c(C)n1Cc1ccccc1
EC50 [34]: > 30 µM (not active)

CO[C@H]1CN(C)C(=O)c2ccc(NC(=O)c3ccc(F)cc3)cc2OC[C@H](C)N(C(=O)c2ccc(F)cc2)C[C@@H]1C
AC50 [35]: 5.72 µM (active)
